US12116357B2, “Heteroaryl-triazole and heteroaryl-tetrazole compounds as pesticides” (Bayer Aktiengesellschaft, priority 2018, dated 2024)

How the values were obtained:
Type in all cases: in vivo
Phaedon cochleariae = Phaedon cochleariae spray test; settings: 168 h, after 7 days
Outline: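 Chinese cabbage leaf disks sprayed with compound in acetone/DMF diluted in water with 1000 ppm alkylarylpolyglycol ether emulsifier, then infested with mustard beetle larvae once dry. Mortality (%) scored after 7 days; 100% = all larvae killed, 0% = none.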

Ctenocephalides felis [1] = test: Ctenocephalides felis oral test; settings: 48 h, 100 ppm in cattle blood, after 2 days
Outline: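 Adult unfed cat fleas (~20) fed through parafilm on cattle blood containing compound (DMSO concentrate diluted in blood); blood held at 37° C., fleas at room temperature. Mortality (%) scored after 2 days.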

Myzus persicae = Myzus persicae oral test; settings: 120 h
Outline: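 Mixed-population aphids feed through parafilm on compound solution (acetone concentrate diluted with water) combined with IPL41 insect medium (33%+15% sugar). Mortality (%) read after 5 days, 100% meaning all aphids killed.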

Nilaparvata lugens = Nilaparvata lugens spray test; settings: 96 h
Outline: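 Rice plants were sprayed with compound formulated in acetone/dimethylformamide and diluted in water containing alkylarylpolyglycol ether emulsifier, then infested with brown planthoppers. Percent mortality was scored after 4 days, where 100% means all insects killed.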

Boophilus microplus = Boophilus microplus injection test; settings: Rhipicephalus microplus, 168 h, 20 μg/animal, egg deposition after 7 days, read-out: efficacy (infertile eggs)
Outline: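 Engorged adult female ticks, five per test, received a 1 μl abdominal injection of compound in DMSO, then were kept in a climate chamber. Fertile egg deposition checked after 7 days, with unclear eggs held until hatching at about 42 days. Efficacy 100% means all eggs infertile, 0% all fertile.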

[2] = tested on: Musca domestica strain WHO-N; test: Musca domestica test (surface treatment & contact assay); settings: 24 hours after contact, read-out: efficacy (mortality); for mortality at 4 mg/m2: surface concentration 4 mg/m^2, 30 min exposure; for mortality at 20 mg/m2: surface concentration 20 mg/m^2, 30 min exposure
Outline: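 Test compound dissolved in acetone (2 mg/ml) with 2000 ppm RME, applied to glazed tile and acetone evaporated. Adult flies placed on dried surface for 30 min exposure. Mortality (%) scored 24 h after contact; 100% means all insects dead.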

Meloidogyne incognita = Meloidogyne incognita test; settings: 20 ppm, after 14 days
Method: • Solvent: 125.0 parts by weight of acetone
To produce a suitable preparation of active compound, 1 part by weight of active compound is mixed with the stated amount of solvent, and the concentrate is diluted with water to the desired concentration.
Vessels are filled with sand, a solution of the active ingredient, a suspension containing eggs and larvae of the southern root-knot nematode (Meloidogyne incognita) and salad seeds. The salad seeds germinate and the seedlings grow. Galls develop in the roots.
After 14 days the nematicidal activity is determined on the basis of the percentage of gall formation. 100% means no galls were found and 0% means the number of galls found on the roots of the treated plants was equal to that in untreated control plants.

Ctenocephalides felis [3] = test: Ctenocephalides felis in-vitro contact test, adult cat flea; settings: 5 μg/cm^2, after 48 hours, read-out: efficacy (fleas dead or moribund)
Outline: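 Compound in acetone coated on glass tube walls (900 ppm solution, 5 μg/cm^2), solvent evaporated, then 5-10 adult fleas added and kept at room temperature. At 48 h, fleas put on a 45-50 °C plate for up to 5 min; those unable to climb scored dead or moribund, efficacy as % affected.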

Spodoptera frugiperda = Spodoptera frugiperda spray test; settings: 168 h
Outline: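 Maize leaf sections were sprayed with compound formulated in acetone/DMF and diluted in water containing 1000 ppm emulsifier, then infested with fall armyworm larvae once dry. Percent mortality was scored after 7 days.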

[4] = tested on: Aedes aegypti strain MONHEIM; test: Aedes aegypti test (surface treatment & contact assay); settings: 24 hours after contact, read-out: efficacy (mortality); for mortality at 20 mg/m2: surface concentration 20 mg/m^2, 30 min exposure
Outline: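 Compound dissolved in acetone (2 mg/ml) with 2000 ppm rapeseed oil methyl ester, applied to glazed tile and acetone evaporated; adult mosquitoes exposed on the dried surface for 30 min. Percent mortality scored 24 h after contact.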

Nezara viridula = Nezara viridula spray test; settings: 96 h
Outline: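 Barley plants infested with N. viridula larvae sprayed with compound in acetone/DMF diluted in water with 1000 ppm emulsifier at the desired concentration. Mortality (%) scored after 4 days; 100% means all bugs killed.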

[5] = tested on: Tetranychus urticae (OP-Resistant); test: Tetranychus urticae (OP-resistant) spray test; settings: 144 h, after 6 days
Method: • Solvent: 78.0 parts by weight acetone • 1.5 parts by weight dimethylformamide • Emulsifier: alkylarylpolyglycol ether
To produce a suitable preparation of active compound, 1 part by weight of active compound is mixed with the stated amount of solvents and is diluted with water, containing an emulsifier concentration of 1000 ppm, to the desired concentration. Further test concentrations are prepared by dilution with emulsifier containing water.
French bean (Phaseolus vulgaris) leaf disks infected with all instars of the two spotted spidermite (Tetranychus urticae), are sprayed with a preparation of the active ingredient of the desired concentration.
After 6 days mortality in % is determined. 100% means all spider mites have been killed and 0% means none of the spider mites have been killed.

[6] = tested on: cattle ticks (Boophilus microplus) strane Parhurst, SP-resistant; test: Boophilus microplus dip test; settings: 100 ppm, egg deposition after 7 days
Method: • Test animal: cattle ticks (Boophilus microplus) strane Parhurst, SP-resistant • Solvent: dimethyl sulfoxide
To produce a suitable preparation of active compound, 10 mg of active compound are dissolved in 0.5 ml solvent, and the concentrate is diluted with water to the desired concentration.
This compound solution is pipetted into tubes. 8-10 engorged, adult, female cattle ticks (Boophilus microplus) are placed in perforated tubes. These tubes are immersed in the aqueous compound solution until the ticks are completely moistened. After the liquid has drained off, the ticks are transferred to a filter paper in a plastic tray and stored in a climate chamber.
After 7 days egg deposition of fertile eggs is monitored. Eggs where fertility is not visible are stored in a climate chamber till hatching after about 42 days. An efficacy of 100% means all eggs are infertile; 0% means all eggs are fertile.

[7] = tested on: Culex quinquefasciatus strain P00; test: Culex quinquefasciatus test (surface treatment & contact assay); settings: 24 hours after contact, read-out: efficacy (mortality)
Method: (§1) • Solvent: Aceton+2000 ppm rapeseed oil methyl ester (RME)
(§2) In order to produce a sufficient, active ingredient containing solution it is necessary to solve the test compound in the solvent-mix (acetone at 2 mg/ml/RME 2000 ppm). This solution is pipetted onto a glazed tile and after evaporation of the acetone, adult mosquitoes of the species Culex quinquefasciatus strain P00 are placed onto the dried surface. The exposure time is 30 minutes.
(§3) Mortality in percent (%) is determined 24 hours after contact of the insects to the treated surface. 100% mortality means that all tested insects are dead, whereas 0% means that no insect died.

[8] = tested on: Blattella germanica strain PAULINIA; test: Blattella germanica test (surface treatment & contact assay); settings: 24 hours after contact, read-out: efficacy (mortality)
Method: as §1
as §2, with “animals” for “mosquitoes”, “Blattella germanica” for “Culex quinquefasciatus”, “P00” left out
as §3

[9] = surface concentration 4 mg/m^2, 30 min exposure
[10] = surface concentration 20 mg/m^2, 30 min exposure

## CC(c1ncnn1-c1ncccn1)N(Cc1ccccn1)C(=O)c1cc(Cl)cc(C(F)(F)F)c1 (centres unmarked) [Example I-001, 3-Chloro-N-(pyridin-2-ylmethyl)-N-{1-[1-(pyrimidin-2-yl)-1H-1,2,4-triazol-5-yl]ethyl}-5-(trifluoromethyl)benzamide]
Phaedon cochleariae
  mortality at 500 g/ha: 100%
Ctenocephalides felis [1]
  mortality at 100 ppm: 100%
Myzus persicae
  mortality at 4 ppm: 100%
  mortality at 20 ppm: 100%
Nilaparvata lugens
  mortality at 500 g/ha: 90%
Boophilus microplus
  pest or weed control at 0.02 mg: 100%
[2]
  mortality at 4 mg/m2: 90 to 100%
  mortality at 20 mg/m2: 90 to 100%
Meloidogyne incognita
  nematicidal activity (gall formation): 90%
Ctenocephalides felis [3]
  pest or weed control at 5 µg/cm2: 100%
Spodoptera frugiperda
  mortality at 500 g/ha: 100%
[4]
  mortality at 20 mg/m2: 90 to 100%
Nezara viridula
  mortality at 500 g/ha: 100%
[5]
  mortality at 500 g/ha: 95%

## CC(c1ncnn1-c1ncccn1)N(C(=O)c1cc(Cl)cc(C(F)(F)F)c1)C1CC1 (centres unmarked) [Example I-002]
Phaedon cochleariae
  mortality at 500 g/ha: 83%
Meloidogyne incognita
  nematicidal activity (gall formation): 100%
Spodoptera frugiperda
  mortality at 500 g/ha: 100%

## CC(c1ncnn1-c1ncccn1)N(CCc1ccc(F)cc1)C(=O)c1cc(Cl)cc(C(F)(F)F)c1 (centres unmarked) [Example I-003]
Phaedon cochleariae
  mortality at 500 g/ha: 100%
Ctenocephalides felis [1]
  mortality at 100 ppm: 100%
Myzus persicae
  mortality at 4 ppm: 100%
  mortality at 20 ppm: 100%
Nilaparvata lugens
  mortality at 500 g/ha: 100%
Boophilus microplus
  pest or weed control at 0.02 mg: 100%
[2]
  mortality at 4 mg/m2: 90 to 100%
  mortality at 20 mg/m2: 90 to 100%
Spodoptera frugiperda
  mortality at 500 g/ha: 100%
[4]
  mortality at 20 mg/m2: 90 to 100%
[6]
  efficacy (infertile eggs): 100%
Nezara viridula
  mortality at 500 g/ha: 100%

## CC(c1ncnn1-c1ncccn1)N(CCS(C)(=O)=O)C(=O)c1cc(Cl)cc(C(F)(F)F)c1 (centres unmarked) [Example I-022]
Phaedon cochleariae
  mortality at 500 g/ha: 100%
Ctenocephalides felis [1]
  mortality at 100 ppm: 100%
Myzus persicae
  mortality at 4 ppm: 100%
  mortality at 20 ppm: 100%
Boophilus microplus
  pest or weed control at 0.02 mg: 100%
[7]; [9]
  mortality at 4 mg/m2: 85 to 100%
[7]; [10]
  mortality at 20 mg/m2: 90 to 100%
[2]
  mortality at 4 mg/m2: 90 to 100%
  mortality at 20 mg/m2: 90 to 100%
Ctenocephalides felis [3]
  pest or weed control at 5 µg/cm2: 100%
Spodoptera frugiperda
  mortality at 500 g/ha: 100%
[4]; [9]
  mortality at 4 mg/m2: 80 to 100%
[4]
  mortality at 20 mg/m2: 90 to 100%
[8]; [9]
  mortality at 4 mg/m2: 80 to 100%
[8]; [10]
  mortality at 20 mg/m2: 80 to 100%
